Tested on: peripheral blood mononuclear cells (PBMCs)
Assay: IFNα release assay from peripheral blood mononuclear cells (HTRF)
Assay type: cell-based
Conditions: Homo sapiens, PBMC, 24 h, freshly isolated human PBMC, IFNα by HTRF, geometric mean when tested more than once
Experimental: The Examples described were tested for biological activity in functional cellular assays using HEK293 cells stably overexpressing human TLR7 or TLR8. The assays tested for the ability of each Example to stimulate secretion of interferon alpha (IFNα) in human primary blood mono nuclear cells (PBMC).
To determine the ability of each Example to induce the release of interferon alpha (IFNα) from freshly isolated peripheral blood mononuclear cells (PBMCs), a Homogeneous Time-Resolved Fluorescence (HTRF) assay was utilized. Human whole blood was collected from healthy donors via vein puncture in accordance with Pfizer protocols (Protocol No. GOHW RDP-01), approved by the Shulman Institutional Review Board. 50 ml of human venous blood sample from individual donors was heparinized by addition to a conical tube containing 714 units of Heparin Sodium Injection MDV (Fresenius Kabi, cat #70041) followed by gentle inversion of the tube several times. Blood was then transferred to a flask, the conical tube was rinsed with 40 ml of PBS containing 2 mM EDTA (PBS-EDTA), and the rinse was added to the blood flask with gently mixing. 30 ml of the diluted blood was added to 3 separate histopaque tubes (Sigma, cat #A0561), applying directly to the frit. Histopaque tubes were then spun for 15 min at 1000×g in a tabletop centrifuge. Following density separation, excess upper phase of plasma was aspirated to within ˜5 ml above the interphase and remaining plasma along with the cloudy interphase containing PBMCs were gently decanted into a new conical tube. 15 ml of PBS-EDTA was added to the histopaque tube and swirled gently to remove remaining PBMCs that adhered to the tube wall and this wash was added to the existing PBMCs in the tube. The volume of the tube was brought to 40 ml with PBS-EDTA and tubes were spun at 250×g for 12 minutes at room temperature. After aspiration of the supernatant, the pellet was gently resuspended with 10 ml of PBS-EDTA and centrifuged again at 250×g for 12 minutes. The resulting supernatant was decanted, and the pellet was resuspended in 20 ml of ACK lysing buffer (ThermoFisher, cat #A10492-01) followed by incubation at room temperature for 5 minutes. The volume of each tube was brought to 50 ml with the addition of PBS-EDTA and tubes were spun at 177×g for 12 minutes at room temperature. The PBMC pellet was again resuspended in 10 ml of PBS without EDTA and tubes were spun for a final time at 177×g for 10 minutes. The supernatant was decanted and PBMCs were resuspended in Assay Media (RPMI base media with 10% FBS heat inactivated, 2 mM Glutamax and Penicillin/Streptomycin).
Each Example was prepared for the assay using 11-point half log serial dilutions from a 2.5 mM DMSO stock solution and 400 nl was spotted into 384 well Viewplate (Perkin Elmer, cat #6007480). Positive and negative controls (previously described) were also spotted within the assay plate and were used to determine percent effect during the analysis process. PBMCs were counted and plated at a density of 100,000 cells/[…]/well; plates were covered with a prewet microclime lid to prevent evaporation and incubated for 24 hrs at 37° C. in a 5% CO2 atmosphere. At the end of the incubation, the microclime lid was removed and the plates were spun at 1000 rpm for 5 minutes. 16 μl of conditioned media from the cell plate was transferred into a separate 384 well low-volume plate (Greiner One, 784080). IFNα levels were quantitated using an HTRF® kit (Cisbio, cat #62HIFNAPEG) according to the manufacturer's instructions. The kit supplies two different specific antibodies, one labelled with D2 (acceptor) and the other labelled with cryptate (donor), and detection buffer. The antibody stocks were diluted […] in detection buffer. For one 384 well plate, 62.5 μl of D2 antibody stock and 62.5 μl of cryptate antibody stock was added to 2.375 ml of detection buffer and mixed well. […]

Structure (SMILES)	EC50 [nM]
CCOCc1nc2c(N)nc3ccccc3c2n1CC(C)(CO)CO [Example 3, 2-((4-amino-2-(ethoxymethyl)-1H-imidazo[4,5-c]quinolin-1-yl)methyl)-2-methylpropane-1,3-diol]	7
CCCc1nc2c(N)nc3ccccc3c2n1CC(C)(CO)CO [Example 16, 2-((4-amino-2-propyl-1H-imidazo[4,5-c]quinolin-1-yl)methyl)-2-methylpropane-1,3-diol]	11
CCc1nc2c(N)nc3ccccc3c2n1CC(C)(CO)CO [Example 15, 2-((4-amino-2-ethyl-1H-imidazo[4,5-c]quinolin-1-yl)methyl)-2-methylpropane-1,3-diol]	12
Cc1nc(N)c2nc(CC(F)(F)F)n(CC(C)(CO)CO)c2c1C [Example 8, 2-((4-amino-6,7-dimethyl-2-(2,2,2-trifluoroethyl)-1H-imidazo[4,5-c]pyridin-1-yl)methyl)-2-methylpropane-1,3-diol]	48
CCCCc1nc2c(N)nc3c(c2n1CC(C)(CO)CO)CCCC3 [Example 13, 2-((4-amino-2-butyl-6,7,8,9-tetrahydro-1H-imidazo[4,5-c]quinolin-1-yl)methyl)-2-methylpropane-1,3-diol]	0.4
CCOCc1nc2c(N)nc(C)c(C)c2n1CC(CO)CO [Example 1, 2-((4-amino-2-(ethoxymethyl)-6,7-dimethyl-1H-imidazo[4,5-c]pyridin-1-yl)methyl)propane-1,3-diol]	99
CCOCc1nc2c(N)nc(C)c(C)c2n1CC(CC)(CO)CO [Example 9, 2-((4-amino-2-(ethoxymethyl)-6,7-dimethyl-1H-imidazo[4,5-c]pyridin-1-yl)methyl)-2-ethylpropane-1,3-diol]	2
CCCCc1nc2c(N)nc3ccccc3c2n1CC(C)(CO)CO [Example 10, 2-((4-amino-2-butyl-1H-imidazo[4,5-c]quinolin-1-yl)methyl)-2-methylpropane-1,3-diol]	1
CCOCc1nc2c(N)nc(C)c(C)c2n1CC(C)(CO)CO [Example 2, 2-((4-amino-2-(ethoxymethyl)-6,7-dimethyl-1H-imidazo[4,5-c]pyridin-1-yl)methyl)-2-methylpropane-1,3-diol]	19
CCCCc1nc2c(N)nc3c(c2n1CC(C)(CO)CO)CCC3 [Example 14, 2-((4-amino-2-butyl-7,8-dihydrocyclopenta[b]imidazo[4,5-d]pyridin-1(6H)-yl)methyl)-2-methylpropane-1,3-diol]	7

Same assay, conditions: freshly isolated human PBMC, 24 hrs, IFNα by HTRF; geometric mean when tested more than once

Structure (SMILES)	EC50 [nM]
CCOCc1nc2c(N)nc(C)c(C)c2n1CC(C)(CO)COC (single isomer, unassigned) [Example 6, 3-(4-amino-2-(ethoxymethyl)-6,7-dimethyl-1H-imidazo[4,5-c]pyridin-1-yl)-2-(methoxymethyl)-2-methylpropan-1-ol]	22
CCOCc1nc2c(N)nc(C)c(C)c2n1CC(C)(CO)COC (single isomer, unassigned) [Example 7, 3-(4-amino-2-(ethoxymethyl)-6,7-dimethyl-1H-imidazo[4,5-c]pyridin-1-yl)-2-(methoxymethyl)-2-methylpropan-1-ol]	198

— US11976064B2, “Toll-like receptor agonists” (Pfizer Inc., priority 2019, dated 2024)
